As usually defined, the IC50 is the midpoint of a concentration-inhibition curve. Lower therefore signals inhibition by little substance. The term pIC50 denotes the negative decadic logarithm of the IC50, by convention in mol/L. A low value points to a high IC50.

Experimental findings from patent US11466013B2 (Betta Pharmaceuticals Co., LTD, priority 2018, dated 2022) are described below.

Assay [1] concerns the target ERK2 (Homo sapiens, UniProt P28482). The assay is described as follows: Kinase assay (Caliper, FAM-labeled peptide), ERK2. It is filed as biochemical. The method in brief:
(§1)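 Kinase preincubated 10 min at room temperature with serially diluted compound before FAM-labeled peptide plus ATP added; reaction run at 28 °C, then stopped. Substrate conversion read by Caliper mobility shift, normalized to DMSO and low controls, curve-fitted for IC50.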

Assay [2] deals with ERK1 (Homo sapiens, UniProt P27361). The assay is described as follows: Kinase assay (Caliper, FAM-labeled peptide), ERK1. It is filed as biochemical. The procedure, abridged: as §1
Assay [3] has as its system COLO205 cells. Briefly: Cell proliferation assay (COLO205), Cell-titer Glo. It is filed as cell-based. The protocol: COLO205 cells were spread into a 96-well plate at 135 μL/well at 2000 cells. After incubating overnight, compound solutions of gradient concentration was prepared, and added 15 μL of DMSO solution of the test compound of each concentration to the cells of each well. The final concentration of the compound was 30000, 10000, 3333.3, 1111.1, 370.4, 123.5, 41.2, 13.7, 4.6, 0 nM (the final concentration of DMSO was 0.5%). 5% CO2 was incubated for 120 h at 37° C. 50 μL of Cell-titer Glo working solution was added to each well, shaked and mixed, and incubated at room temperature for 10 minutes. The multi-functional microplate reader read the luminescence value, and converted the luminescence value reading into inhibition percentage. Inhibition percentage=(maximum value−reading)/(maximum value−minimum value)*100.
The “maximum value” was the DMSO control, the “minimum value” indicates the cell-free control group.
Graphpad Prism software was used to perform curve fitting and obtain IC50 value.

Setting [4] is: Homo sapiens, COLO 205, 120 h incubation.

pIC50: −log10 of the molar value.

ERK2, sequence (P28482 whole entry): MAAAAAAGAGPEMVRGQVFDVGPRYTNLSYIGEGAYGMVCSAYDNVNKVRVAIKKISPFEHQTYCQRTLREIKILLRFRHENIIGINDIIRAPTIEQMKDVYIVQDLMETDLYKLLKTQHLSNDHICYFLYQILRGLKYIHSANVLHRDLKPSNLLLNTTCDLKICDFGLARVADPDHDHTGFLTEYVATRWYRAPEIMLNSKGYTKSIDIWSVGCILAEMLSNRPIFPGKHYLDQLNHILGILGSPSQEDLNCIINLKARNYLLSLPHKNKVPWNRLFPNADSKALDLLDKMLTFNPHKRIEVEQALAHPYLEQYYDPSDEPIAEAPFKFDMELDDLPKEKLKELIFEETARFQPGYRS
ERK1, sequence (P27361 whole entry): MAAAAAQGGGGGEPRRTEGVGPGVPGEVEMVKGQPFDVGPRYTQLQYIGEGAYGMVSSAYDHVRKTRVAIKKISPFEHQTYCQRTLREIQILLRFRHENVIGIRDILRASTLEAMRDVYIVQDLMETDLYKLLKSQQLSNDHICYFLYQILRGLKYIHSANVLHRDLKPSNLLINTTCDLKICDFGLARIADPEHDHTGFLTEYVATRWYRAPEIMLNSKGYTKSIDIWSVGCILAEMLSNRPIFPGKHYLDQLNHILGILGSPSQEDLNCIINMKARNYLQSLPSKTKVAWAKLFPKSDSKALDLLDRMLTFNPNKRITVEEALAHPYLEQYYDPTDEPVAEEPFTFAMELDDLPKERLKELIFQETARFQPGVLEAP

Consider `CC(C)Nc1cc(-c2cnc(C(=O)NCc3cc(F)ccc3CO)s2)c(Cl)cn1` [Example 2, 5-(5-Chloro-2-(isopropylamino)pyridin-4-yl)-N-(5-fluoro-2-(hydroxymethyl)benzyl)thiazole-2-formamide], for which the figures for the IC50 in assay [1] and in assay [2] were 0.9 nM and 1 nM, respectively. This molecule also gave a pIC50 in assay [3] (setting [4]) of 7.11.

Take `CC(C)Nc1cc(-c2cc3n(c2)CC2(COC2)CN(Cc2ccccc2CO)C3=O)c(Cl)cn1` [Example 6, 8′-(5-Chloro-2-(isopropylamino)pyridin-4-yl)-2′-(2-(hydroxymethyl)benzyl)-2′,3-dihydro-1′H,5′H-spiro[oxetane-3,4′-pyrrolo[1,2-a][1,4]diazepine]-1′-one]: the IC50 in assay [1] was found to be 0.5 nM; in assay [2] it was 0.8 nM. This molecule also had a negative-log IC50 (pIC50) in assay [3] (setting [4]) of 8.05.

Regarding `CC(C)Nc1cc(-c2cc3n(n2)CC(CO)(CCl)CN(Cc2ccccc2CO)C3=O)c(Cl)cn1` (stereo not drawn) [Example 8, 2-(5-Chloro-2-(isopropylamino)pyridin-4-yl)-7-(chloromethyl)-7-(hydroxymethyl)-5-(2-(hydroxymethyl)benzyl)-5,6,7,8-tetrahydro-4H-pyrazolo[1,5-a][1,4]diazepine-4-one], the IC50 in assay [1] was 1.4 nM; in assay [2], 1.3 nM. The molecule further showed a pIC50 in assay [3] (setting [4]) of 7.44.

As to `CC(C)Nc1cc(-c2cc3n(c2)CC2(COC2)CN(Cc2cc(F)ccc2CO)C3=O)c(Cl)cn1` [Example 10, 8′-(5-chloro-2-(isopropylamino)pyridin-4-yl)-2′-(5-fluoro-2-(hydroxymethyl)benzyl)-2′,3′-dihydro-1′h,5′h-spiro[oxacyclobutane-3,4′-pyrrolo[1,2-a][1,4]diazepine]-1′-one], the values for the IC50 in assay [1] and in assay [2] were 0.87 nM and 0.89 nM, respectively. Besides, in assay [3] (setting [4]), the pIC50 was 7.78.

As to `CC(C)Nc1cc(-c2cc3n(c2)CC2(COC2)CN(Cc2ccc(F)cc2CO)C3=O)c(Cl)cn1` [Example 13], the IC50 in assay [1] was 0.89 nM; in assay [2], 0.74 nM. Also, the pIC50 in assay [3] (setting [4]) was 7.29.

As for `CC(C)Nc1cc(-c2cc3n(c2)CCCN(Cc2ccccc2CO)C3=O)c(Cl)cn1` [Example 16, 8-(5-chloro-2-(isopropylamino)pyridin-4-yl)-2-(2-(hydroxylmethyl)benzyl)-2,3,4,5-tetrahydro-1h-pyrrolo [1,2-a][1,4]diazepine-1-one], the IC50 in assay [1] was found to be 0.6 nM; in assay [2], 0.9 nM. Moreover, the pIC50 in assay [3] (setting [4]) is 7.25.

For `CC(C)Nc1cc(-c2cc3n(c2)CC2(COC2)CN(Cc2cc(F)c(F)cc2CO)C3=O)c(Cl)cn1` [Example 17], the IC50 in assay [1] was 0.4 nM; in assay [2], 0.47 nM. Moreover, the pIC50 in assay [3] (setting [4]) was 7.60.

Consider `CC(C)Nc1cc(-c2cc3n(c2)CCN(Cc2cc(F)ccc2CO)C3=O)c(Cl)cn1` [Example 18, 7-(5-chloro-2-(isopropylamino)pyridin-4-yl)-2-(5-fluoro-2-(hydroxymethyl)benzyl)-3,4-dihydropyrrolo[1,2-a]pyrazine-1(2H)-one], for which the results for the IC50 in assay [1] and in assay [2] were 0.49 nM and 0.4 nM, respectively. The same molecule had a pIC50 in assay [3] (setting [4]) of 7.25.

For the molecule `CC(C)Nc1cc(-c2cc3n(c2)CC(O)CN(Cc2cc(F)ccc2CO)C3=O)c(Cl)cn1` (stereo not drawn) [Example 20, 8-(5-chloro-2-(isopropylamino)pyridin-4-yl)-2-(5-fluoro-2-(hydroxymethyl)benzyl)-4-hydroxy-2,3,4,5-tetrahydro-1h-pyrrolo [1,2-a][1,4]diazepine-1-one], the figures for the IC50 in assay [1] and in assay [2] were 0.56 nM and 0.34 nM, respectively. For the same molecule, the pIC50 in assay [3] (setting [4]) is 7.12.

Turning to `CC(C)Nc1cc(-c2cc3n(c2)CCCN(Cc2cc(F)c(F)cc2CO)C3=O)c(Cl)cn1` [Example 21, 8-(5-chloro-2-(isopropylamino)pyridin-4-yl)-2-(4,5-difluoro-2-(hydroxymethyl)benzyl)-2,3,4,5-tetrahydro-1h-pyrrolo[1,2-a][1,4] diazepine-1-one], the IC50 came to 0.76 nM in assay [1] and 0.73 nM in assay [2]. In assay [3] (setting [4]), this molecule had a pIC50 of 7.13.

In the case of `Cc1cnc(Nc2ccnn2C)nc1-c1c[nH]c(C(=O)NCc2cc(F)ccc2CO)c1` [Example 22, N-(5-fluoro-2-(hydroxymethyl)benzyl)-4-(5-methyl-2-((1-methyl-1H-pyrazol-5-yl)amino)pyrimidin-4-yl)-1H-pyrrole-2-carboxamide], the results for the IC50 in assay [1] and in assay [2] were 0.34 nM and 0.43 nM, respectively. In assay [3] (setting [4]), this molecule had a pIC50 of 7.45.

Take `Cc1cnc(Nc2ccnn2C)nc1-c1cc2n(c1)CCN(Cc1cc(F)ccc1CO)C2=O` [Example 23, 2-(5-Fluoro-2-(hydroxymethyl)benzyl)-7-(5-methyl-2-((1-methyl-1H-pyrazol-5-yl)amino)pyrimidin-4-yl)-3,4-dihydropyrrolo[1,2-a]pyrazine-1(2H)-one]: the IC50 came to 0.48 nM in assay [1] and 0.42 nM in assay [2]. Besides, in assay [3] (setting [4]), the pIC50 is 7.73.

As for `COC[C@H]1Cn2cc(-c3cc(Nc4c(F)cnn4C)ncc3Cl)cc2C(=O)N1Cc1cc(F)ccc1CO` [Example 51, (R)-7-(5-chloro-2-((4-fluoro-1-methyl-1H-pyrazol-5-yl)amino)pyridin-4-yl)-2-(5-fluoro-2-(hydroxymethyl)benzyl)-3-(methoxymethyl)-3,4-dihydropyrrolo[1,2-a]pyrazine-1(2H)-ketone], in assay [3] (setting [4]), the pIC50 is 7.61.

Molecule `COCOC[C@H]1Cn2cc(-c3cc(Nc4ccnn4C)ncc3Cl)cc2C(=O)N1Cc1cc(F)ccc1CO` [Example 53, (R)-7-(5-chloro-2-((1-methyl-1H-pyrazol-5-yl)amino)pyridin-4-yl)-2-(5-fluoro-2-(hydroxymethyl)benzyl)-3-((methoxymethoxy)methyl)-3,4-dihydropyrrolo[1,2-a]pyrazine-1(2H)-ketone] showed a pIC50 in assay [3] (setting [4]) of 8.41.

As for `COC[C@H]1Cn2cc(-c3cc(Nc4cnn(C)c4)ncc3Cl)cc2C(=O)N1Cc1cc(F)ccc1CO` [Example 88, (R)-7-(5-chloro-2-((1-methyl-1h-pyrazole-4-yl)amino)pyridine-4-yl)-2-(5-fluoro-2-(hydroxymethyl)benzyl)-3-(methoxymethyl)-3,4-dihydropyrrolo[1,2-a] pyrazine-1(2H)-one], the IC50 in assay [1] is 1 nM. Further, the pIC50 in assay [3] (setting [4]) is 7.54.

As for `COC[C@H]1Cn2cc(-c3cc(Nc4cn(C)nc4C)ncc3Cl)cc2C(=O)N1Cc1cc(F)ccc1CO` [Example 89, (R)-7-(5-chloro-2-((1,3-dimethyl-1h-pyrazole-4-yl)amino)pyridine-4-yl)-2-(5-fluoro-2-(hydroxymethyl)benzyl)-3-(methoxymethyl)-3,4-dihydropyrrolo[1,2-a] pyrazin-1(2H)-one], the IC50 in assay [1] turned out to be 1.1 nM. Moreover, the pIC50 in assay [3] (setting [4]) was 7.92.

`COC[C@H]1Cn2cc(-c3cc(Nc4cc(C)nn4C)ncc3Cl)cc2C(=O)N1Cc1cc(F)ccc1CO` [Example 96, (R)-7-(5-chloro-2-((1,3-dimethyl-1h-pyrazole-5-yl)amino)pyridine-4-yl)-2-(5-fluoro-2-(hydroxymethyl)benzyl)-3-(methoxymethyl)-3,4-dihydropyrrolo[1,2-a] pyrazine-1(2H)-one] returned an IC50 in assay [1] of 1.8 nM. Besides, in assay [3] (setting [4]), the pIC50 was 7.96.

With `Cn1nccc1Nc1ncc(C(F)(F)F)c(-c2cc3n(c2)CCN(Cc2cc(F)ccc2CO)C3=O)n1` [Example 164, 2-(5-fluoro-2-(hydroxymethyl)benzyl)-7-(2-((1-methyl-1h-pyrazole-5-yl)amino)-5-(trifluoromethyl)pyrimidin-4-yl)-3,4-dihydropyrrolo[1,2-a] pyrazine-1(2H)-one], the half-maximal inhibitory concentration (IC50) in assay [1] was 0.66 nM. Further, in assay [3] (setting [4]), the pIC50 is 7.54.

As to `CC(C)Nc1cc(-c2cc3n(c2)CCN(C(CO)c2cccc(C(F)(F)F)c2)C3=O)c(Cl)cn1` (stereo not drawn) [Example D1, reference compound], in assay [3] (120 h incubation), the negative logarithm of the IC50 (pIC50) was 5.13.

In the case of `CC(C)Nc1cc(-c2cnn(C(=O)N[C@H](CO)c3cccc(Cl)c3)c2)c(Cl)cn1` [Example D2, (S)-4-(5-chloro-2-(isopropylamino)pyridin-4-yl)-N′-(1-(3-chlorophenyl)-2-hydroxyethyl)-1H-pyrazole-1-carboxamide, reference compound], the pIC50 in assay [3] (120 h incubation) is 4.91.

`Cc1cnc(Nc2ccnn2C)nc1-c1c[nH]c(C(=O)NCc2cccc(F)c2)c1` [Example D4, N-(3-fluorobenzyl)-4-(5-methyl-2-((1-methyl-1h-pyrazole-5-yl)amino)pyrimidin-4-yl)-1h-pyrrole-2-formamide, reference compound]: the negative-log IC50 (pIC50) in assay [3] (setting [4]) was 6.60.

Turning to `Cc1cnc(Nc2ccnn2C)nc1-c1cc2n(c1)CCN(Cc1cccc(F)c1)C2=O` [Example D5, 2-(3-fluorobenzyl)-7-(5-methyl-2-((1-methyl-1h-pyrazole-5-yl)amino)pyrimidin-4-yl)-3,4-dihydropyrrolo[1,2-a] pyrazine-1(2H)-one, reference compound], in assay [3] (setting [4]), the pIC50 was 7.03. Compared with the last molecule, the pIC50 is 0.43 log units higher.

The molecule `CC(C)Nc1cc(-c2cc3n(c2)CCN(Cc2cccc(F)c2)C3=O)c(Cl)cn1` [Example D8, 7-(5-chloro-2-(isopropylamino)pyridin-4-yl)-2-(3-fluorobenzyl)-3,4-dihydropyrrolo[1,2-a] pyrazine-1(2H)-one, reference compound] showed a pIC50 in assay [3] (setting [4]) of 5.79.
